Experimental data taken from patent publication US9260467B2, “Sialic acid dimers” (priority 2011, dated 2016).

These compounds were tested against T1, Siglec-2 (CD22) (Homo sapiens, UniProt P20273) (assay: new affinity assay: displacement of biotinylated compound 155 from sialidase-treated Daudi cells, FACS with streptavidin-PE). Details: Table II; rIP values set relative to compound 38; Daudi cells, displacement of compound 155.
T1 sequence (P20273 20-847): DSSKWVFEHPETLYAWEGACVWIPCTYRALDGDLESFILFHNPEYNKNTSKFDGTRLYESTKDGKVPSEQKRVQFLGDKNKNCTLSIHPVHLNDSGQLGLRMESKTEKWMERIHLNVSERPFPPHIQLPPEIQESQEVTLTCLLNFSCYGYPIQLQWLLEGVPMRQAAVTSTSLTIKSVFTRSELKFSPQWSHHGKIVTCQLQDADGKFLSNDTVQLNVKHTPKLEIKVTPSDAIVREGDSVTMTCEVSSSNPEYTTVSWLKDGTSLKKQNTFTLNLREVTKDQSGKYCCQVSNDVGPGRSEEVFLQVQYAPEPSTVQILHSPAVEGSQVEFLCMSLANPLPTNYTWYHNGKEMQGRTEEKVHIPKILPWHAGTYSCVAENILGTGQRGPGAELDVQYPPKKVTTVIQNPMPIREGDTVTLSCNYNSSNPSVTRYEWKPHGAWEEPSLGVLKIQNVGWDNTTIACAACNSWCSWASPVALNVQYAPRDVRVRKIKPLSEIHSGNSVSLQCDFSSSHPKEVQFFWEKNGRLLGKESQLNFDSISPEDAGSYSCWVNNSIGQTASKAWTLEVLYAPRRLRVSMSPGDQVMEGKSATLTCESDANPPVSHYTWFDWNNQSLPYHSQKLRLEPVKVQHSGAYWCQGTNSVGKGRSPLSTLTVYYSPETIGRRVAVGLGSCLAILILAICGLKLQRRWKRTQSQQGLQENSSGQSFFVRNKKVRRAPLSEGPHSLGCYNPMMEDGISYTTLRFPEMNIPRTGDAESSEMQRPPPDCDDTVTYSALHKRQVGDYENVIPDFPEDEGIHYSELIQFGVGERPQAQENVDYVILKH
Format: binding
Set-up: endogenous in cells; host or cells: Daudi (human B-cell lymphoma line)
Experimental: To determine the affinity of the compound of the formula (I), approximately 5×10^6 to 2×10^8 cells of the human B-cell lymphoma line “Daudi” were incubated with sialidase (A. ureafaciens) at 37° C. for 1 h (final concentration 0.1 unit/ml). […] Batches of 1-2×10^6 cells were transferred to sample vessels, and incubated on ice for 15 min with serial concentrations (10-fold dilutions, 1 mM to 1×10^−7 mM) of the substance under measurement (inhibitor). The reaction volume was 50 μl. Then 50 microliters of compound 155 (4-micromolar) were added, and incubation took place for 20 min Washing with FACS buffer (PBS, 0.1 BSA, 0.01% sodium azide) was followed by incubation with streptavidin-PE in the dark for 15 min, followed by washing and measurement of the bound amount of […] via the streptavidin-PE in the FACS. For the determination of 0% displacement of the compound 155, cells without inhibitor were measured. For the determination of 100% displacement, cells were measured without compound 155 and without inhibitor. For each assay, four substances and one reference were measured. The IC50 values determined in each assay were subsequently converted into values of rIP (relative Inhibitory Potency). […]

In order of rising rIP:
1. CC(=O)N[C@H]1[C@H]([C@H](O)[C@H](O)CNCc2ccc(-c3ccccc3)cc2)O[C@@](OCCCSCCNC(=O)c2ccc(C(=O)NCCSCCCO[C@]3(C(=O)[O-])C[C@H](O)[C@@H](NC(C)=O)[C@H]([C@H](O)[C@H](O)CNCc4ccc(-c5ccccc5)cc4)O3)cc2)(C(=O)[O-])C[C@@H]1O.[Na+].[Na+] [Compound 85]  1
2. CC(=O)N[C@H]1[C@H]([C@H](O)[C@H](O)CNC(=O)c2ccc(-c3c4ccc(=O)cc-4oc4cc(O)ccc34)c(C(=O)[O-])c2)O[C@@](OCCCSCCNC(=O)c2ccc(-c3ccc(C(=O)NCCSCCCO[C@]4(C(=O)[O-])C[C@H](O)[C@@H](NC(C)=O)[C@H]([C@H](O)[C@H](O)CNC(=O)c5ccc(-c6c7ccc(=O)cc-7oc7cc(O)ccc67)c(C(=O)[O-])c5)O4)cc3)cc2)(C(=O)[O-])C[C@@H]1O.[Na+].[Na+].[Na+].[Na+] [Compound 131]  4
3. CC(=O)N[C@H]1[C@H]([C@H](O)[C@H](O)CNS(=O)(=O)c2ccc(-c3ccccc3)cc2)O[C@@](OCCCSCCNC(=O)c2ccc(C(=O)NCCSCCCO[C@]3(C(=O)[O-])C[C@H](O)[C@@H](NC(C)=O)[C@H]([C@H](O)[C@H](O)CNS(=O)(=O)c4ccc(-c5ccccc5)cc4)O3)cc2)(C(=O)[O-])C[C@@H]1O.[Na+].[Na+] [Compound 84]  9
4. CC(=O)Nc1ccc(C(=O)NC[C@@H](O)[C@@H](O)[C@@H]2O[C@@](OCCCSCCNC(=O)c3ccc(C(=O)NCCSCCCO[C@]4(C(=O)[O-])C[C@H](O)[C@@H](NC(C)=O)[C@H]([C@H](O)[C@H](O)CNC(=O)c5ccc(NC(C)=O)cc5)O4)cc3)(C(=O)[O-])C[C@H](O)[C@H]2NC(C)=O)cc1.[Na+].[Na+] [Compound 73]  13
5. CC(=O)N[C@H]1[C@H]([C@H](O)[C@H](O)CNC(=O)C#Cc2ccccc2)O[C@@](OCCCSCCNC(=O)c2ccc(-c3ccc(C(=O)NCCSCCCO[C@]4(C(=O)[O-])C[C@H](O)[C@@H](NC(C)=O)[C@H]([C@H](O)[C@H](O)CNC(=O)C#Cc5ccccc5)O4)cc3)cc2)(C(=O)[O-])C[C@@H]1O.[Na+].[Na+] [Compound 129]  21
6. CC(=O)N[C@H]1[C@H]([C@H](O)[C@H](O)CNC(=O)c2ccc(C3CCCCC3)cc2)O[C@@](OCCCSCCNC(=O)c2ccc(C(=O)NCCSCCCO[C@]3(C(=O)[O-])C[C@H](O)[C@@H](NC(C)=O)[C@H]([C@H](O)[C@H](O)CNC(=O)c4ccc(C5CCCCC5)cc4)O3)cc2)(C(=O)[O-])C[C@@H]1O.[Na+].[Na+] [Compound 57]  22
7. CC(=O)N[C@H]1[C@H]([C@H](O)[C@H](O)CNC(=O)c2ccc(C3CCCCC3)cc2)O[C@@](OCCCSCCNC(=O)CCCCC(=O)NCCSCCCO[C@]2(C(=O)[O-])C[C@H](O)[C@@H](NC(C)=O)[C@H]([C@H](O)[C@H](O)CNC(=O)c3ccc(C4CCCCC4)cc3)O2)(C(=O)[O-])C[C@@H]1O.[Na+].[Na+] [Compound 58]  24
8. CC(=O)N[C@H]1[C@H]([C@H](O)[C@H](O)CNC(=O)c2cc3ccccc3s2)O[C@@](OCCCSCCNC(=O)c2ccc(C(=O)NCCSCCCO[C@]3(C(=O)[O-])C[C@H](O)[C@@H](NC(C)=O)[C@H]([C@H](O)[C@H](O)CNC(=O)c4cc5ccccc5s4)O3)cc2)(C(=O)[O-])C[C@@H]1O.[Na+].[Na+] [Compound 70]  137
9. CC(=O)N[C@H]1[C@H]([C@H](O)[C@H](O)CNC(=O)Cc2ccc(-c3ccccc3)cc2)O[C@@](OCCCSCCNC(=O)c2ccc(C(=O)NCCSCCCO[C@]3(C(=O)[O-])C[C@H](O)[C@@H](NC(C)=O)[C@H]([C@H](O)[C@H](O)CNC(=O)Cc4ccc(-c5ccccc5)cc4)O3)cc2)(C(=O)[O-])C[C@@H]1O.[Na+].[Na+] [Compound 79]  181
10. CC(=O)N[C@H]1[C@H]([C@H](O)[C@H](O)CNC(=O)c2ccc(-c3ccccc3)cc2)O[C@@](OCCCSCCC(=O)NCCNC(=O)CCSCCCO[C@]2(C(=O)[O-])C[C@H](O)[C@@H](NC(C)=O)[C@H]([C@H](O)[C@H](O)CNC(=O)c3ccc(-c4ccccc4)cc3)O2)(C(=O)[O-])C[C@@H]1O.[Na+].[Na+] [Compound 46]  290
11. CC(=O)N[C@H]1[C@H]([C@H](O)[C@H](O)CNC(=O)c2ccc(-c3ccccc3)cc2)O[C@@](OCCCSCCNc2c(NCCSCCCO[C@]3(C(=O)[O-])C[C@H](O)[C@@H](NC(C)=O)[C@H]([C@H](O)[C@H](O)CNC(=O)c4ccc(-c5ccccc5)cc4)O3)c(=O)c2=O)(C(=O)[O-])C[C@@H]1O.[Na+].[Na+] [Compound 51]  299
12. CC(=O)N[C@H]1[C@H]([C@H](O)[C@H](O)CNC(=O)c2ccc(-c3ccccc3)cc2)O[C@@](OCCCSCCC(=O)Nc2ccccc2NC(=O)CCSCCCO[C@]2(C(=O)[O-])C[C@H](O)[C@@H](NC(C)=O)[C@H]([C@H](O)[C@H](O)CNC(=O)c3ccc(-c4ccccc4)cc3)O2)(C(=O)[O-])C[C@@H]1O.[Na+].[Na+] [Compound 42]  359
13. CC(=O)N[C@H]1[C@H]([C@H](O)[C@H](O)CNC(=O)c2ccc(-c3ccccc3)cc2)O[C@@](OCCCSCCC(=O)Nc2c(C)c(C)c(NC(=O)CCSCCCO[C@]3(C(=O)[O-])C[C@H](O)[C@@H](NC(C)=O)[C@H]([C@H](O)[C@H](O)CNC(=O)c4ccc(-c5ccccc5)cc4)O3)c(C)c2C)(C(=O)[O-])C[C@@H]1O.[Na+].[Na+] [Compound 45]  523
14. CC(=O)N[C@H]1[C@H]([C@H](O)[C@H](O)CNC(=O)c2ccc(-c3ccco3)cc2)O[C@@](OCCCSCCNC(=O)c2ccc(C(=O)NCCSCCCO[C@]3(C(=O)[O-])C[C@H](O)[C@@H](NC(C)=O)[C@H]([C@H](O)[C@H](O)CNC(=O)c4ccc(-c5ccco5)cc4)O3)cc2)(C(=O)[O-])C[C@@H]1O.[Na+].[Na+] [Compound 82]  752
15. CC(=O)N[C@H]1[C@H]([C@H](O)[C@H](O)CNC(=O)c2ccc(-c3ccccc3)cc2)O[C@@](OCCCSCCNC(=O)c2ccc(C(=O)NCCSCCCO[C@]3(C(=O)[O-])C[C@H](O)[C@@H](NC(C)=O)[C@H]([C@H](O)[C@H](O)CNC(=O)c4ccc(-c5ccccc5)cc4)O3)c3ccccc23)(C(=O)[O-])C[C@@H]1O.[Na+].[Na+] [Compound 34]  899
16. CC(=O)N[C@H]1[C@H]([C@H](O)[C@H](O)CNC(=O)c2ccc(-c3ccc(O)cc3)cc2)O[C@@](OCCCSCCNC(=O)c2ccc(C(=O)NCCSCCCO[C@]3(C(=O)[O-])C[C@H](O)[C@@H](NC(C)=O)[C@H]([C@H](O)[C@H](O)CNC(=O)c4ccc(-c5ccc(O)cc5)cc4)O3)cc2)(C(=O)[O-])C[C@@H]1O.[Na+].[Na+] [Compound 67]  1959
17. CC(=O)N[C@H]1[C@H]([C@H](O)[C@H](O)CNC(=O)c2ccc(-c3ccccc3)cc2)O[C@@](OCCCSCCNC(=O)c2ccc(C(=O)NCCSCCCO[C@]3(C(=O)[O-])C[C@H](O)[C@@H](NC(C)=O)[C@H]([C@H](O)[C@H](O)CNC(=O)c4ccc(-c5ccccc5)cc4)O3)nc2)(C(=O)[O-])C[C@@H]1O.[Na+].[Na+] [Compound 27]  2990
18. CC(=O)N[C@H]1[C@H]([C@H](O)[C@H](O)CNC(=O)c2ccc(-c3ccccc3Cl)cc2)O[C@@](OCCCSCCNC(=O)c2ccc(C(=O)NCCSCCCO[C@]3(C(=O)[O-])C[C@H](O)[C@@H](NC(C)=O)[C@H]([C@H](O)[C@H](O)CNC(=O)c4ccc(-c5ccccc5Cl)cc4)O3)cc2)(C(=O)[O-])C[C@@H]1O.[Na+].[Na+] [Compound 75]  3210
19. CC(=O)N[C@H]1[C@H]([C@H](O)[C@H](O)CNC(=O)c2ccc(-c3ccccc3)cc2)O[C@@](OCCCCCCNC(=O)c2ccc(C(=O)NCCSCCCO[C@]3(C(=O)O)C[C@H](O)[C@@H](NC(C)=O)[C@H]([C@H](O)[C@H](O)CNC(=O)c4ccc(-c5ccccc5)cc4)O3)cc2)(C(=O)O)C[C@@H]1O [Compound 92]  3788
20. CC(=O)N[C@H]1[C@H]([C@H](O)[C@H](O)CNC(=O)c2ccc(-c3ccccc3)cc2)O[C@@](OCCCSCCNC(=O)C#CC(=O)NCCSCCCO[C@]2(C(=O)[O-])C[C@H](O)[C@@H](NC(C)=O)[C@H]([C@H](O)[C@H](O)CNC(=O)c3ccc(-c4ccccc4)cc3)O2)(C(=O)[O-])C[C@@H]1O.[Na+].[Na+] [Compound 25]  4944
